This note sets out measurements from patent publication US20220403326A1, “MEDIA FORMULATIONS AND METHODS FOR PRODUCING PROGENITOR T CELLS” (priority 2019, published 2022).

Holding throughout (format): cell-based, human
Experiment [1] has as its system CD34+ HSPCs. The experiment in a line: TPO requirement with or without TNFα, 14-day culture. To be noted: 14 days. On the procedure:
To assess the requirement for TPO in T lineage development, CD34+ HSPCs were analyzed by flow cytometry after 14 days in the presence or absence of TNFα, and further in the presence or absence of TPO.

For experiment [2], the system named is CD34+ HSPCs. The experiment in a line: Definitive screening design cytokine screen for proT cell differentiation and expansion. The protocol: For experiments 7 days or longer, HSPCs were seeded at 63-125 cells/mm^2 (equivalent to 2000-4000 cells/well of a 96-well plate) on DL4+VCAM-1-coated surfaces. Experiments shorter than 7 days (CFSE and qPCR) were seeded at 470-780 cells/mm^2 (equivalent to 15,000-25,000 cells/well of a 96-well plate) to provide enough cells for analysis. Cells were cultured in 100 μl/well (32 μl/well for 384-well plate) of Iscove's Modified Eagle Medium (IMDM) supplemented with 20% bovine serum albumin, insulin, and transferrin (BIT 9500) serum substitute (Stemcell Technologies), 1 μg/ml low-density lipoprotein (LDL; Stemcell Technologies), 60 μM ascorbic acid (Sigma), 24 μM 2-mercaptoethanol (Sigma), and 1% penicillin-streptomycin (P/S; Invitrogen). The cytokines used in control condition were SCF, FLT3L, TPO, and IL-7 (also known as the “4F cytokines”, all of which were obtained from R&D Systems), each at a concentration of 20 ng/ml or 100 ng/ml as indicated in the text. All other cytokines were purchased from R&D Systems and used in the combinations and concentrations indicated in the text. For certain experiments, the γ-secretase inhibitor (2S)-N-[(3,5-Difluorophenyl)acetyl]-L-alanyl-2-phenyl] glycine 1,1-dimethylethyl ester (DAPT) or dimethyl sulfoxide (DMSO) was added to media at the concentrations indicated in the text.
For screening experiments, a Definitive Screening Design (DSD)^7 was employed where each factor was tested at three levels (scaled to [−1,0,1]). The design included at least 2m+1 runs, where m is the number of factors, comprised of m fold-over pairs plus a center run (with all factors at level 0) and with orthogonal blocking of UCB donors.^8
Absolute cell numbers were acquired for each cell population of interest and, for initial experiments, a z-score was calculated relative to the control condition:
where SE(⋅) is the standard error. Control conditions were the cytokines used previously in the DL4+VCAM-1 assay as in Shukla et al.^6 Stepwise regression using the minimum Bayesian information criterion method was used to determine significant terms and, from this, a linear regression model of z-scores was constructed that included main and quadratic effects and two-factor interactions. This provided a better- or worse-than estimate for each factor compared to the control. The DSD layout and regression model were constructed using JMP 13 software (SAS). Follow up experiments measuring the dose response of top factors, the regression model was fit to the absolute cell count. Values were square root or log-transformed as necessary to ensure that residuals were approximately normal before fitting the regression model.
Test conditions were arranged using serial dilutions of each cytokine and laid out using an Eppendorf epMotion 5070 liquid handler in 384-well plates previously coated with DL4 and VCAM-1.
To identify factors that enhance proT cell differentiation and expansion, a two-part screen was conducted from day 0-7 and day 7-14 to separate the effects of screened molecules on HSPCs and differentiating proT cells (FIG. 1a). Screened molecules were tested at three doses each in combination using a definitive screening design (DSD) experiment and a linear regression model was fit to empirical data to estimate dose response.^7 The response to factors was measured against a control condition that contained SCF, FLT3L, TPO and IL-7 cytokines as in Shukla et al.^6 but using a lower concentration of 20 ng/ml each.
Medium gray indicates the effect of the control condition; dark gray to black indicates an effect greater than the control condition; and light gray to white indicates an effect lesser than the control condition. The size of each circle indicates the significance of the effect in the linear regression model. Combinations of factors indicate two-factor interactions (e.g., TPO*IL-1β) or quadratic effects (e.g., IL-21*IL-21) in the regression model. […] IL-3 and TNFα were selected for further investigation. […]

Experiment [3] relates to CD34+ HSPCs. The experiment in a line: Timed addition of TNFα (day 0, 1, 2 or 3), 7-day culture on DL4+VCAM-1. To be noted: late addition of TNFα; day 7. The protocol:
For experiments 7 days or longer, HSPCs were seeded at 63-125 cells/mm^2 (equivalent to 2000-4000 cells/well of a 96-well plate) on DL4+VCAM-1-coated surfaces. Experiments shorter than 7 days (CFSE and qPCR) were seeded at 470-780 cells/mm^2 (equivalent to 15,000-25,000 cells/well of a 96-well plate) to provide enough cells for analysis. Cells were cultured in 100 μl/well (32 μl/well for 384-well plate) of Iscove's Modified Eagle Medium (IMDM) supplemented with 20% bovine serum albumin, insulin, and transferrin (BIT 9500) serum substitute (Stemcell Technologies), 1 μg/ml low-density lipoprotein (LDL; Stemcell Technologies), 60 μM ascorbic acid (Sigma), 24 μM 2-mercaptoethanol (Sigma), and 1% penicillin-streptomycin (P/S; Invitrogen). The cytokines used in control condition were SCF, FLT3L, TPO, and IL-7 (also known as the “4F cytokines”, all of which were obtained from R&D Systems), each at a concentration of 20 ng/ml or 100 ng/ml as indicated in the text. All other cytokines were purchased from R&D Systems and used in the combinations and concentrations indicated in the text. For certain experiments, the γ-secretase inhibitor (2S)-N-[(3,5-Difluorophenyl)acetyl]-L-alanyl-2-phenyl] glycine 1,1-dimethylethyl ester (DAPT) or dimethyl sulfoxide (DMSO) was added to media at the concentrations indicated in the text. […]

As to TNFα, the “T lineage development in the absence of TPO” value in experiment [1] is on record as “supports T lineage development in the absence of TPO”. In experiment [2] (day 0-7 and day 7-14, control SCF, FLT3L, TPO, IL-7 at 20 ng/ml each, linear regression model), the “effect on total live cells, CD7+ lymphocytes and CD7+CD5+ cells relative to the control condition” value was “string positive effects”. Besides, the “dose response of live cells, CD7+ lymphocytes and CD7+CD5+ proT cells” value in experiment [2] (range of concentrations, n=2 UCB donors) is given as “curved response in at least one population”. In addition, in experiment [3], the “CD7+ lymphoid cells” value was “decrease in CD7+ lymphoid cells” and the “CD14/33+ myeloid lineage cells” value is “increase in CD14/33+ myeloid lineage cells”.
